Experimental data published in ChEMBL document CHEMBL3885881, “DrugMatrix”.

Species on record: Rattus norvegicus
Assay: DrugMatrix - Regimen: Daily Repeat
Type: toxicity, organism-based, Sprague-Dawley
Parameters: regimen Daily Repeat, gender Male, age 6-8 weeks
Details: in vivo, po, route oral GAVAGE, […]; for ABSOLUTE BASOPHIL / ABSOLUTE EOSINOPHIL / ABSOLUTE LYMPHOCYTE / ABSOLUTE MONOCYTE / ABSOLUTE SEGMENTED NEUTROPHIL / BASOPHIL / EOSINOPHIL / ERYTHROCYTE COUNT / HEMATOCRIT / HEMOGLOBIN / LEUKOCYTE COUNT / LYMPHOCYTE / MEAN CORPUSCULAR HEMOGLOBIN / MEAN CORPUSCULAR HEMOGLOBIN CONCENTRATION / MEAN CORPUSCULAR VOLUME / MONOCYTE / NEUTROPHIL / NUCLEATED RED BLOOD CELLS / PLATELET COUNT: tissue Blood; for ALANINE AMINOTRANSFERASE / ALBUMIN / ALKALINE PHOSPHATASE / ASPARTATE AMINOTRANSFERASE / BLOOD UREA NITROGEN / CARBON DIOXIDE / CHLORIDE / CHOLESTEROL / CREATINE PHOSPHOKINASE / CREATININE / GLUCOSE / LACTATE DEHYDROGENASE / LIPASE / PHOSPHORUS / POTASSIUM / SODIUM / TOTAL BILIRUBIN / TOTAL PROTEIN / URIC ACID: tissue Plasma
[1] = 100 mg/kg, 120 h, dose level Low, time 5 day
[2] = 700 mg/kg, 72 h, dose level High, time 3 day
[3] = 700 mg/kg, 120 h, dose level High, time 5 day

## CC(=O)Nc1cccc(O)c1 [METACETAMOL]
[1]
  ABSOLUTE BASOPHIL: 0 CELLS/uL
  ABSOLUTE EOSINOPHIL: 0 CELLS/uL
  ABSOLUTE LYMPHOCYTE: 14298.33 CELLS/uL
  ABSOLUTE MONOCYTE: 106.33 CELLS/uL
  ABSOLUTE SEGMENTED NEUTROPHIL: 1828.67 CELLS/uL
  BASOPHIL: 0%
  EOSINOPHIL: 0%
  ERYTHROCYTE COUNT: 5.63 x10E6/uL
  HEMATOCRIT: 35%
  HEMOGLOBIN: 13.73 G/DL
  LEUKOCYTE COUNT: 16.23 x10E3/uL
  LYMPHOCYTE: 88%
  MEAN CORPUSCULAR HEMOGLOBIN: 24.43 pg
  MEAN CORPUSCULAR HEMOGLOBIN CONCENTRATION: 39.23 G/DL
  MEAN CORPUSCULAR VOLUME: 62.23 fL
  MONOCYTE: 0.67%
  NEUTROPHIL: 11.33%
  NUCLEATED RED BLOOD CELLS: 0.33 /100WBC
  PLATELET COUNT: 1235.67 x10E3/uL
  ALANINE AMINOTRANSFERASE: 58.33 u/L
  ALBUMIN: 4.03 G/DL
  ALKALINE PHOSPHATASE: 434.67 u/L
  ASPARTATE AMINOTRANSFERASE: 95 u/L
  BLOOD UREA NITROGEN: 14.67 mg/dL
  CARBON DIOXIDE: 26.67 mmol/L
  CHLORIDE: 101 MEQ/L
  CHOLESTEROL: 68.33 mg/dL
  CREATINE PHOSPHOKINASE: 455.33 u/L
  CREATININE: 0.2 mg/dL
  GLUCOSE: 151 mg/dL
  LACTATE DEHYDROGENASE: 549 u/L
  LIPASE: 10.33 u/L
  PHOSPHORUS: 11.03 mg/dL
  POTASSIUM: 6.46 MEQ/L
  SODIUM: 140.67 MEQ/L
  TOTAL BILIRUBIN: 0.17 mg/dL
  TOTAL PROTEIN: 5.73 G/DL
  URIC ACID: 1.6 mg/dL
[2]
  ABSOLUTE BASOPHIL: 0 CELLS/uL
  ABSOLUTE EOSINOPHIL: 0 CELLS/uL
  ABSOLUTE LYMPHOCYTE: 14734.67 CELLS/uL
  ABSOLUTE MONOCYTE: 227.67 CELLS/uL
  ABSOLUTE SEGMENTED NEUTROPHIL: 1637.67 CELLS/uL
  BASOPHIL: 0%
  EOSINOPHIL: 0%
  ERYTHROCYTE COUNT: 5.31 x10E6/uL
  HEMATOCRIT: 34.37%
  HEMOGLOBIN: 13.6 G/DL
  LEUKOCYTE COUNT: 16.6 x10E3/uL
  LYMPHOCYTE: 89%
  MEAN CORPUSCULAR HEMOGLOBIN: 25.6 pg
  MEAN CORPUSCULAR HEMOGLOBIN CONCENTRATION: 39.6 G/DL
  MEAN CORPUSCULAR VOLUME: 64.7 fL
  MONOCYTE: 1.33%
  NEUTROPHIL: 9.67%
  NUCLEATED RED BLOOD CELLS: 0 /100WBC
  PLATELET COUNT: 1189.67 x10E3/uL
  ALANINE AMINOTRANSFERASE: 61.67 u/L
  ALBUMIN: 4.37 G/DL
  ALKALINE PHOSPHATASE: 420.33 u/L
  ASPARTATE AMINOTRANSFERASE: 80.33 u/L
  BLOOD UREA NITROGEN: 15.67 mg/dL
  CARBON DIOXIDE: 32.33 mmol/L
  CHLORIDE: 98.67 MEQ/L
  CHOLESTEROL: 94 mg/dL
  CREATINE PHOSPHOKINASE: 171 u/L
  CREATININE: 0.17 mg/dL
  GLUCOSE: 144 mg/dL
  LACTATE DEHYDROGENASE: 137 u/L
  LIPASE: 10 u/L
  PHOSPHORUS: 10.6 mg/dL
  POTASSIUM: 6.44 MEQ/L
  SODIUM: 143.63 MEQ/L
  TOTAL BILIRUBIN: 0.27 mg/dL
  TOTAL PROTEIN: 6 G/DL
  URIC ACID: 1.33 mg/dL
[3]
  ABSOLUTE BASOPHIL: 0 CELLS/uL
  ABSOLUTE EOSINOPHIL: 0 CELLS/uL
  ABSOLUTE LYMPHOCYTE: 13480 CELLS/uL
  ABSOLUTE MONOCYTE: 247.33 CELLS/uL
  ABSOLUTE SEGMENTED NEUTROPHIL: 2206 CELLS/uL
  BASOPHIL: 0%
  EOSINOPHIL: 0%
  ERYTHROCYTE COUNT: 5.72 x10E6/uL
  HEMATOCRIT: 35.17%
  HEMOGLOBIN: 13.93 G/DL
  LEUKOCYTE COUNT: 15.93 x10E3/uL
  LYMPHOCYTE: 84.67%
  MEAN CORPUSCULAR HEMOGLOBIN: 24.37 pg
  MEAN CORPUSCULAR HEMOGLOBIN CONCENTRATION: 39.6 G/DL
  MEAN CORPUSCULAR VOLUME: 61.53 fL
  MONOCYTE: 1.67%
  NEUTROPHIL: 13.67%
  NUCLEATED RED BLOOD CELLS: 0.67 /100WBC
  PLATELET COUNT: 1165.67 x10E3/uL
  ALANINE AMINOTRANSFERASE: 57 u/L
  ALBUMIN: 4.27 G/DL
  ALKALINE PHOSPHATASE: 454.33 u/L
  ASPARTATE AMINOTRANSFERASE: 78.67 u/L
  BLOOD UREA NITROGEN: 15.67 mg/dL
  CARBON DIOXIDE: 27.33 mmol/L
  CHLORIDE: 105 MEQ/L
  CHOLESTEROL: 78.67 mg/dL
  CREATINE PHOSPHOKINASE: 239.33 u/L
  CREATININE: 0.25 mg/dL
  GLUCOSE: 169.67 mg/dL
  LACTATE DEHYDROGENASE: 132 u/L
  LIPASE: 10.33 u/L
  PHOSPHORUS: 10.87 mg/dL
  POTASSIUM: 7.12 MEQ/L
  SODIUM: 151.07 MEQ/L
  TOTAL BILIRUBIN: 0.2 mg/dL
  TOTAL PROTEIN: 5.97 G/DL
  URIC ACID: 2 mg/dL
